≈ marks a conversion by molar mass, not a printed value. Where two headings read alike, the source gives them in different places.
Tests used:
[1] = Chemical stability of BPO in wash formulations, shelf life prediction; format: physicochemical; conditions: wash formulations with increasing sorbitol concentrations
Description: BPO stability in the formulations of the present invention were assessed over time at 25° C./60% RH and 30° C./65% RH using environmentally controlled chambers. Specifically formulations containing 2.5% BPO or 10% BPO in glass vials were placed on stability, and monitored for BPO degradation.
Chemical stability of the BPO in surfactant based wash products is a challenge due to increased solubility of the BPO in these systems.

[2] = cited from earlier work
[3] = in water and propylene glycol, storage; cited from earlier work
[4] = BPO solubility in water and in binary mixtures with surfactants; conditions: water
From the text: The concentration of all surfactants was fixed at 6% w/w active.

effect on BPO stability (benzoic acid generated) [1]	SMILES	half-life of BPO in solution in water ([2]; pH 4)	half-life of BPO in solution in water ([2]; pH 7)	stability of benzoyl peroxide in suspension (dispersed form) [3]	solubility [4]
improve BPO stability	OC[C@@H](O)[C@@H](O)[C@H](O)[C@@H](O)CO [sorbitol, D-Sorbitol]				
	O=C(OOC(=O)c1ccccc1)c1ccccc1 [BPO, Benzoyl peroxide]	11.87 h	5.20 h	not degraded after 90 days	3 µg/mL (≈ 12.4 µM)
